Measured values published in US10544143B2, “4-azaindole compounds” (BRISTOL-MYERS SQUIBB COMPANY, priority 2017, dated 2020).
Where two headings read alike, the source gives them in different places.

Columns and labels:
human TLR7 = human TLR7 (Homo sapiens (Human), UniProt Q9NYK1); assay: TLR7 inhibition reporter assay (HEK-Blue SEAP); format: cell-based
human TLR8 = human TLR8 (Homo sapiens (Human), UniProt Q9NR97); assay: TLR8 inhibition reporter assay (HEK-Blue SEAP);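 note: SEAP driven by IFN-β minimal promoter carrying NF-κB and AP-1 sites, compounds dosed 0.05 nM to 50 µM for 22 h, inhibition scaled between agonist-plus-DMSO and reference-inhibitor wells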
human TLR8, sequence (Q9NR97 27-1041): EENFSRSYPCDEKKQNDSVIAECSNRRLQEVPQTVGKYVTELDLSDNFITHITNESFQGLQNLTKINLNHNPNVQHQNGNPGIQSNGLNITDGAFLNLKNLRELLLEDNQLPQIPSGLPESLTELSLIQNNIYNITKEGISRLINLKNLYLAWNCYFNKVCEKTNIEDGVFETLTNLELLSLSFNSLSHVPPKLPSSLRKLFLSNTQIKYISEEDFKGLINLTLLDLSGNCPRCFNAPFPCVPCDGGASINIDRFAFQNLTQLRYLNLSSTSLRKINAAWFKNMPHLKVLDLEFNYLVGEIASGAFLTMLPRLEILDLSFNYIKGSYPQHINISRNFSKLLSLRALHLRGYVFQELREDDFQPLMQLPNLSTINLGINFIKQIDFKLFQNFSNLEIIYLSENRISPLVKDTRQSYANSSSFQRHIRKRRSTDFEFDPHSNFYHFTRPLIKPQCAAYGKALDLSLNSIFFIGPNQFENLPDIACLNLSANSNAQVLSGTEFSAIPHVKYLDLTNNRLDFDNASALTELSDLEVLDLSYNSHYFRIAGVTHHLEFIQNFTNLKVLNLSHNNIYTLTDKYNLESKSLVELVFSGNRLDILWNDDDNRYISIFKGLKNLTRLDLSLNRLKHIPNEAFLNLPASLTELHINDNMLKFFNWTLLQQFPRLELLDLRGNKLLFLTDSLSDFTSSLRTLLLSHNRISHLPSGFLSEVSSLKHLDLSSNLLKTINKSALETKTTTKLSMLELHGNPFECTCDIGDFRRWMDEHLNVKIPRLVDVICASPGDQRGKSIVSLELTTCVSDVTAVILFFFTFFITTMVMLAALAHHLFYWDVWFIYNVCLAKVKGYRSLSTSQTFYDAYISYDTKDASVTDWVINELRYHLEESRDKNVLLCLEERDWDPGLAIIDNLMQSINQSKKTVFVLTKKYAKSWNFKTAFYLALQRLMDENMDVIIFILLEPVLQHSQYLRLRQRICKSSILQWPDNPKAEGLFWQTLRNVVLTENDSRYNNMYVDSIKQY

human TLR9 = human TLR9 (Homo sapiens (Human), UniProt Q9NR96); assay: TLR9 inhibition reporter assay (HEK-Blue SEAP);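 note: SEAP driven by an IFN-β minimal promoter with NF-κB and AP-1 sites, read after 22 h, compounds dosed 0.05 nM–50 µM, inhibition scaled between agonist plus DMSO and reference-inhibitor wells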
human TLR9, sequence (Q9NR96 26-1032): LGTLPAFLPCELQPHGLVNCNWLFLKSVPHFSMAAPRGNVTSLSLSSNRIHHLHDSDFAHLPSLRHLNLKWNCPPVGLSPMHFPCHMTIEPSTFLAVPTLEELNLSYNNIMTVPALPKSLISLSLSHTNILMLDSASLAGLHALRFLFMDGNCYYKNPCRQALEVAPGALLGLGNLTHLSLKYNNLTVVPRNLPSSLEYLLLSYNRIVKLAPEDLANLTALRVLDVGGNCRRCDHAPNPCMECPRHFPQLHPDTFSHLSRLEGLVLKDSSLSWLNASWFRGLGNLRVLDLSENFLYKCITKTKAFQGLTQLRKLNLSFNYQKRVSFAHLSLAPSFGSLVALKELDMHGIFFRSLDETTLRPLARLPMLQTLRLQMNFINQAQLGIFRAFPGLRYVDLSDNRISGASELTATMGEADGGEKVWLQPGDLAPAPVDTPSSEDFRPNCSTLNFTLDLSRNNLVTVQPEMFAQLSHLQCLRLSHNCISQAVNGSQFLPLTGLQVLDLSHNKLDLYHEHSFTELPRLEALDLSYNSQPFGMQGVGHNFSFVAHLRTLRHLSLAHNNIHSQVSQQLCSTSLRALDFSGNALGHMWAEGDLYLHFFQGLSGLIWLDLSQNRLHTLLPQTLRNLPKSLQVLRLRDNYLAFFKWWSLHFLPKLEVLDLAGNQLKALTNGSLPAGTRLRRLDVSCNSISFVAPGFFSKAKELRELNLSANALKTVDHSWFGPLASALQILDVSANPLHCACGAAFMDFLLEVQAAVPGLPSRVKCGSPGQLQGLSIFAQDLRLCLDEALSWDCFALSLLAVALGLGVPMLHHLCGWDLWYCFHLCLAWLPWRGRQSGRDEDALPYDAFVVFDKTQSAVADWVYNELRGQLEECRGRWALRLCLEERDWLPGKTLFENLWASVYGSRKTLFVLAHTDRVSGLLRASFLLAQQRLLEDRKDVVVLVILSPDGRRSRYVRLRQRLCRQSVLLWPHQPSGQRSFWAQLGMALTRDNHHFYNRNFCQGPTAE

[1] = HEK-Blue human TLR7 cells, gardiquimod 7.5 μM
[2] = read-out: TLR8 IC50, HEK-Blue human TLR8 cells, R848 15.9 μM
[3] = read-out: TLR9 IC50, HEK-Blue human TLR9 cells, ODN2006 5 nM
[4] = HEK-Blue cells overexpressing human TLR7, gardiquimod 7.5 μM stimulation, SEAP reporter
[5] = read-out: TLR8 IC50, HEK-Blue cells overexpressing human TLR8, R848 15.9 μM stimulation, SEAP reporter
[6] = read-out: TLR9 IC50, HEK-Blue cells overexpressing human TLR9, ODN2006 5 nM stimulation, SEAP reporter
[7] = HEK-Blue cells overexpressing human TLR7, SEAP reporter, gardiquimod 7.5 μM
[8] = read-out: TLR8 IC50, HEK-Blue cells overexpressing human TLR8, SEAP reporter, R848 15.9 μM
[9] = read-out: TLR9 IC50, HEK-Blue cells overexpressing human TLR9, SEAP reporter, ODN2006 5 nM

human TLR7, sequence (Q9NYK1 27-1049): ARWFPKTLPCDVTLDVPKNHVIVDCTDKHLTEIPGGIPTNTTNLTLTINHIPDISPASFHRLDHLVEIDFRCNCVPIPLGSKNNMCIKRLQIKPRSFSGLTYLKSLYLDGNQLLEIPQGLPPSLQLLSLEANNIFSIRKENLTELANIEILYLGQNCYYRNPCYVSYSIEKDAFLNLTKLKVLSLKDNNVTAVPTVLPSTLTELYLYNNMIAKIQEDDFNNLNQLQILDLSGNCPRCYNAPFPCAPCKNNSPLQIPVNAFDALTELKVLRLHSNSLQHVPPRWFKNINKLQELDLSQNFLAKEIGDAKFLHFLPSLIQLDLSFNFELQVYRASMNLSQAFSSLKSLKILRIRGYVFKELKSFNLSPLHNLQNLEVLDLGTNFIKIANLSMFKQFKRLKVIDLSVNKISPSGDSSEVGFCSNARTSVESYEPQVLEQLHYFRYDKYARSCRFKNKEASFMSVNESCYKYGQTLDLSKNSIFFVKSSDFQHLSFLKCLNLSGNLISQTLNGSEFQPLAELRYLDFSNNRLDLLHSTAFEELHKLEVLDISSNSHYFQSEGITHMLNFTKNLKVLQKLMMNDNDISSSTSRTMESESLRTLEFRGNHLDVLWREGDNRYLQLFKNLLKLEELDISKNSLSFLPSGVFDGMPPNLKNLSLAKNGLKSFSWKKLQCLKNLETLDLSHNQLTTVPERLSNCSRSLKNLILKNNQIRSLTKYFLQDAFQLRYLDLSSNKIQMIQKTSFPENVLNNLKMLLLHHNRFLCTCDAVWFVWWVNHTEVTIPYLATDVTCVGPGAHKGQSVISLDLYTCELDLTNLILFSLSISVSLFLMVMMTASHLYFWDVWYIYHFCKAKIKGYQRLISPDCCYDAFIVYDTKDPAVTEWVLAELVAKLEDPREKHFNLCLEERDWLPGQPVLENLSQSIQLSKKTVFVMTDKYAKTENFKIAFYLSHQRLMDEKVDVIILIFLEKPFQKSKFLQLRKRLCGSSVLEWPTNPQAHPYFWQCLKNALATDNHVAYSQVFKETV

`COC1CN(CC(=O)N2CCN(c3ccc4[nH]c(-c5cn6ncnc6c(C)c5C)c(C(C)C)c4n3)CC2)C1` [Example 916] was tested, and the IC50 (human TLR7; [1]) was […], the IC50 (human TLR8; [2]) was 11 nM and the IC50 (human TLR9; [3]) was 14500 nM.
`CCN1CCN(c2ccc3[nH]c(-c4cc(OC)c5ncnn5c4)c(C(C)C)c3n2)CC1` [Example 119] showed an IC50 (human TLR7; [4]) of 1.8 nM, an IC50 (human TLR8; [5]) of 0.96 nM and an IC50 (human TLR9; [6]) of 14100 nM.
With `COCCN(C)C1CCC(c2ccc3[nH]c(-c4cc(OC)c5ncnn5c4)c(C(C)C)c3n2)CC1` (stereo not drawn) [Example 198] the IC50 (human TLR7; [4]) was 1 nM, the IC50 (human TLR8; [5]) was 7.8 nM and the IC50 (human TLR9; [6]) was 1140 nM.
`Cc1c(-c2[nH]c3ccc(N4CC(N(C)CC(=O)N(C)C)C4)nc3c2C(C)C)cn2ncnc2c1C` [Example 21] showed an IC50 (human TLR7; [4]) of 91 nM, an IC50 (human TLR8; [5]) of 46 nM and an IC50 (human TLR9; [6]) greater than 50000 nM.
`COc1ncc(CN(C)C2CCC(c3ccc4[nH]c(-c5cn6ncnc6c(C)c5C)c(C(C)C)c4n3)CC2)cn1` (stereo not drawn) [Example 405] showed an IC50 (human TLR7; [7]) of 3.6 nM, an IC50 (human TLR8; [8]) of 2.5 nM and an IC50 (human TLR9; [9]) of 1420 nM.
With `Cc1c(-c2[nH]c3ccc(N4CCN[C@@H](C)C4)nc3c2C(C)C)cn2ncnc2c1C` [Example 989] the IC50 (human TLR7; [1]) was 0.69 nM, the IC50 (human TLR8; [2]) was 0.31 nM and the IC50 (human TLR9; [3]) was 7100 nM.
Compound `Cc1c(-c2[nH]c3ccc(C4CCC(N5CC6(CCOC6)C5)CC4)nc3c2C(C)C)cn2ncnc2c1C` (stereo not drawn) [Example 1065] has an IC50 (human TLR7; [1]) of 1.1 nM, an IC50 (human TLR8; [2]) of 1.1 nM and an IC50 (human TLR9; [3]) of 2800 nM.
`Cc1c(-c2[nH]c3ccc(N4CCN(C(C)C)C[C@@H]4C)nc3c2C(C)C)cn2ncnc2c1C` [Example 816] showed an IC50 (human TLR7; [1]) of 1.7 nM, an IC50 (human TLR8; [2]) of 1.7 nM and an IC50 (human TLR9; [3]) of 8720 nM.
Compound `CC(C)c1c(-c2cn(C)c3ncccc23)[nH]c2ccc(C3CCC(NCC4(S(C)(=O)=O)CC4)CC3)nc12` (stereo not drawn) [Example 238] has an IC50 (human TLR7; [4]) of 0.71 nM, an IC50 (human TLR8; [5]) of 0.97 nM and an IC50 (human TLR9; [6]) of 297 nM.
For `Cc1c(-c2[nH]c3ccc(N4C[C@@H](C)N(CCC(N)=O)C[C@@H]4C)nc3c2C(C)C)cn2ncnc2c1C` [Example 848], the IC50 (human TLR7; [1]) was 1.2 nM, the IC50 (human TLR8; [2]) was 2.2 nM and the IC50 (human TLR9; [3]) was 17500 nM.
Work on `CC(C)c1c(-c2cn(C)c3ncncc23)[nH]c2ccc(N3CCNCC3)nc12` [Example 122] yielded an IC50 (human TLR7; [4]) of 1.7 nM, an IC50 (human TLR8; [5]) of 1.1 nM and an IC50 (human TLR9; [6]) of 7250 nM.
`COc1cc(-c2[nH]c3cc(C)c(C4CCC(NC5CCOC5)CC4)nc3c2C(C)C)cn2ncnc12` (stereo not drawn) [Example 329] gave an IC50 (human TLR7; [4]) of 1.6 nM, an IC50 (human TLR8; [5]) of 23 nM and an IC50 (human TLR9; [6]) of 2070 nM.
`COc1cc(-c2[nH]c3ccc(N4CCN(CCC(F)(F)F)CC4)nc3c2C(C)C)cn2ncnc12` [Example 116] gave an IC50 (human TLR7; [4]) of 9.7 nM, an IC50 (human TLR8; [5]) of 5 nM and an IC50 (human TLR9; [6]) of 35600 nM.
For `CC(C)c1c(-c2cn(C)c3ncccc23)[nH]c2ccc(C3CCC(NCCS(C)(=O)=O)CC3)nc12` (stereo not drawn) [Example 247], the IC50 (human TLR7; [4]) was 1.2 nM, the IC50 (human TLR8; [5]) was 1.2 nM and the IC50 (human TLR9; [6]) was 825 nM.
In the case of `Cc1c(-c2[nH]c3ccc(N4CCN(CCC(N)=O)[C@H](C)C4)nc3c2C(C)C)cn2ncnc2c1C` [Example 852], the IC50 (human TLR7; [1]) is reported as 5.2 nM, the IC50 (human TLR8; [2]) is reported as 0.82 nM and the IC50 (human TLR9; [3]) is reported as 16200 nM.
`Cc1cc(-c2[nH]c3cc(F)c(C4CCN(CCS(C)(=O)=O)CC4)nc3c2C(C)C)cn2ncnc12` [Example 582] showed an IC50 (human TLR7; [7]) of 0.99 nM, an IC50 (human TLR8; [8]) of 12 nM and an IC50 (human TLR9; [9]) of 7460 nM.
With `COc1cc(-c2[nH]c3ccc(C4CCC(NCC5(C)COC5)C4)nc3c2C(C)C)cn2ncnc12` (stereo not drawn) [Example 718] the IC50 (human TLR7; [7]) was 9.6 nM, the IC50 (human TLR8; [8]) was 3.6 nM and the IC50 (human TLR9; [9]) was 6210 nM.
Compound `Cc1c(-c2[nH]c3ccc(C4CCC(N(C)C5COC5)CC4)nc3c2C(C)C)cn(C)c(=O)c1C` (stereo not drawn) [Example 254] has an IC50 (human TLR7; [4]) of 72 nM, an IC50 (human TLR8; [5]) of 27 nM and an IC50 (human TLR9; [6]) of 8730 nM.
With `Cc1c(-c2[nH]c3ccc(N4CCN(S(=O)(=O)CCN(C)C)CC4)nc3c2C(C)C)cn2ncnc2c1C` [Example 151] the IC50 (human TLR7; [4]) was 1.2 nM, the IC50 (human TLR8; [5]) was 1.2 nM and the IC50 (human TLR9; [6]) was 12000 nM.
`Cc1c(-c2[nH]c3ccc(N4CCC(NC5CCC5)CC4)nc3c2C(C)C)cn2ncnc2c1C` [Example 57] showed an IC50 (human TLR7; [4]) of 7.4 nM, an IC50 (human TLR8; [5]) of 1.3 nM and an IC50 (human TLR9; [6]) of 5070 nM.
Work on `Cc1c(-c2[nH]c3ccc(C4CC(NCC5(C)COC5)C4)nc3c2C(C)C)cn2ncnc2c1C` (stereo not drawn) [Example 637] yielded an IC50 (human TLR7; [7]) of 3.8 nM, an IC50 (human TLR8; [8]) of 0.53 nM and an IC50 (human TLR9; [9]) of 1360 nM.
For `COc1cc(-c2[nH]c3ccc(N4CC(N)C4)nc3c2C(C)C)cn2ncnc12` [Example 16], the IC50 (human TLR7; [4]) was 0.6 nM, the IC50 (human TLR8; [5]) was 2.1 nM and the IC50 (human TLR9; [6]) was 635 nM.
Work on `COc1cc(-c2[nH]c3cc(C)c(C4CCC(N5CC6(COC6)C5)CC4)nc3c2C(C)C)cn2ncnc12` (stereo not drawn) [Example 317] yielded an IC50 (human TLR7; [4]) of 4.8 nM, an IC50 (human TLR8; [5]) of 94 nM and an IC50 (human TLR9; [6]) of 3610 nM.
`Cc1cc(-c2[nH]c3ccc(C4CCC(N5CC6(COC6)C5)CC4)nc3c2C(C)C)cn2ncnc12` (stereo not drawn) [Example 288] was tested, and the IC50 (human TLR7; [4]) was 28 nM, the IC50 (human TLR8; [5]) was 114 nM and the IC50 (human TLR9; [6]) was 6450 nM.
For “4-((3-isopropyl-2-(8-methoxy-[1,2,4]triazolo[1,5-a]pyridin-6-yl)-1H-pyrrolo[3,2-b]pyridin-5-yl)oxy)-N,N-dipropylcyclohexan-1-amine [Example 605]”, the IC50 (human TLR7; [7]) was 13 nM, the IC50 (human TLR8; [8]) was 17 nM and the IC50 (human TLR9; [9]) was 4240 nM.
`Cc1c(-c2[nH]c3ccc(C4CCC(N(C)CC(N)=O)CC4)nc3c2C(C)C)cn2ncnc2c1C` (stereo not drawn) [Example 406] was tested, and the IC50 (human TLR7; [7]) was 1.4 nM, the IC50 (human TLR8; [8]) was 3 nM and the IC50 (human TLR9; [9]) was 1470 nM.
For `COc1cc(-c2[nH]c3ccc(N4CCN(CCNS(C)(=O)=O)CC4)nc3c2C(C)C)cn2ncnc12` [Example 134], the IC50 (human TLR7; [4]) was 3.7 nM, the IC50 (human TLR8; [5]) was 1.1 nM and the IC50 (human TLR9; [6]) was 26100 nM.
Work on `[2H]C([2H])([2H])N(CCC(=O)N1C[C@H](C)N(c2ccc3[nH]c(-c4cn5ncnc5c(C)c4C)c(C(C)C)c3n2)C[C@H]1C)C([2H])([2H])[2H]` [Example 965] yielded an IC50 (human TLR7; [1]) of 0.39 nM, an IC50 (human TLR8; TLR8 IC50, HEK-Blue human TLR8 cells, R848 15.9 μM) of 1.1 nM and an IC50 (human TLR9; TLR9 IC50, HEK-Blue human TLR9 cells, ODN2006 5 nM) of 6480 nM.
`COc1cc(-c2[nH]c3ccc(C4CCC(NCC(=O)N(C)C)CC4)nc3c2C(C)C)cn2ncnc12` (stereo not drawn) [Example 232] was tested, and the IC50 (human TLR7; [4]) was 3 nM, the IC50 (human TLR8; [5]) was 9.8 nM and the IC50 (human TLR9; [6]) was 484 nM.
For `Cc1c(-c2[nH]c3ccc(C4CCC(N5CC(S(C)(=O)=O)C5)CC4)nc3c2C(C)C)cn2ncnc2c1C` (stereo not drawn) [Example 448], the IC50 (human TLR7; [7]) was 7.5 nM, the IC50 (human TLR8; [8]) was 24 nM and the IC50 (human TLR9; [9]) was 7690 nM.
With `COc1cc(-c2[nH]c3ccc(C4CC(NC(=O)CN(C)C)C4)nc3c2C(C)C)cn2ncnc12` (stereo not drawn) [Example 638] the IC50 (human TLR7; [7]) was 2.9 nM, the IC50 (human TLR8; [8]) was 7.3 nM and the IC50 (human TLR9; [9]) was 1270 nM.
In the case of `COc1cc(-c2[nH]c3ccc(OCC4CCN(CCS(C)(=O)=O)CC4)nc3c2C(C)C)cn2ncnc12` [Example 604, 6-(3-isopropyl-5-((1-(2-(methylsulfonyl)ethyl)piperidin-4-yl)methoxy)-1H-pyrrolo[3,2-b]pyridin-2-yl)-8-methoxy-[1,2,4]triazolo[1,5-a]pyridine], the IC50 (human TLR7; [7]) is reported as 2.8 nM, the IC50 (human TLR8; [8]) is reported as 2.5 nM and the IC50 (human TLR9; [9]) is reported as 5910 nM.
Compound `Cc1c(-c2[nH]c3ccc(N4CCN(C(=O)CN(CC(C)C)CC(C)C)CC4)nc3c2C(C)C)cn2ncnc2c1C` [Example 881] has an IC50 (human TLR7; [1]) of 25 nM, an IC50 (human TLR8; [2]) of 68 nM and an IC50 (human TLR9; [3]) of 43500 nM.
`COc1ccc(-c2[nH]c3ccc(C4CCNCC4)nc3c2C(C)C)cc1OC` [Example 526] gave an IC50 (human TLR7; [7]) of 8.8 nM, an IC50 (human TLR8; [8]) of 14 nM and an IC50 (human TLR9; [9]) of 666 nM.
`Cc1c(-c2[nH]c3ccc(C4CN(C)CCO4)nc3c2C(C)C)cn2ncnc2c1C` (stereo not drawn) [Example 673] was tested, and the IC50 (human TLR7; [7]) was 5.2 nM, the IC50 (human TLR8; [8]) was 6.9 nM and the IC50 (human TLR9; [9]) was 14400 nM.
In the case of `Cc1c(-c2[nH]c3ccc(N4CCN(C(=O)CNC5CC5)C[C@H]4C)nc3c2C(C)C)cn2ncnc2c1C` [Example 836], the IC50 (human TLR7; [1]) is reported as 2.4 nM, the IC50 (human TLR8; [2]) is reported as 4.1 nM and the IC50 (human TLR9; [3]) is reported as 16400 nM.
`Cc1c(-c2[nH]c3ccc(N4CCNC(C)C4C)nc3c2C(C)C)cn2ncnc2c1C` (stereo not drawn) [Example 977] was tested, and the IC50 (human TLR7; [1]) was 1.4 nM, the IC50 (human TLR8; [2]) was 2.1 nM and the IC50 (human TLR9; [3]) was 8600 nM.
